According to patent US20200031785A1, “METHODS FOR TREATING CHRONIC PAIN AND OPIOID DEPENDENCE USING ADENYLYL CYCLASE INHIBITORS” (Purdue Research Foundation, priority 2017, published 2020):

biological target: T1, hAC1 (Homo sapiens, UniProt Q08828); assay: Cyclic AMP accumulation in HEK cells stably expressing AC1, stimulated with A23187 (HTRF); format: cell-based; details: HEK293; HEK-AC1 cells, 30 μM
T1 construct: expressed in transfected cells
Experimental: The development and mechanistic characterization of AC1-selective small molecule inhibitors is believed to provide novel non-opioid weapons in the war on chronic pain. We identified our initial hits via screening 10,000 selected compounds from the Life Chemicals collection. The screen was carried out using HEK cells stably expressing AC1 (HEK-AC1) and cyclic AMP accumulation was stimulated using the Ca^2+ ionophore, A23187 to selectively activate AC1. Compounds with potential chemical liabilities and PAINs were removed from further evaluation (Baell and Holloway, J. Med. Chem. 2010, 53, 2719-2740).
(§1) Fresh powders of several robust inhibitors (>90% inhibition) were evaluated in multiple confirmation assays assessing the dose response relationship for inhibiting AC1 and AC8 activity. Confirmation assays used A23817 to selectively stimulate recombinant AC1 or AC8 in the HEK cell background (Cumbay and Watts (2001), J. Pharmacol Exp Ther 297:1201-1399). This approach takes advantage of one unique regulatory property of AC1 for the development of selective inhibitors. Both AC1 and AC8 are robustly activated by Ca^2+/CaM under a variety of conditions, whereas the effects of Ca^2+/CaM on AC3 are modest and conditional requiring activation by G proteins. Previous studies have identified unique Ca^2+/CaM binding domains as one possible site of interaction to achieve AC1 (vs. AC8) selectivity (Masada et al., 2012, Biochemistry 51:7917-7929).
(§2) The primary technology we employed to measure cAMP accumulation was a homogenous time-resolved fluorescence (HTRF) assay, the same technology utilized in the primary screen. […] This could be due to either 1) the chemical scaffolds are exquisitely selective toward the AC family of enzymes or 2) the library has not been screened against a sufficient number of targets. The answer is likely a combination of the two; nonetheless, the lack of biological data to date bodes well for these series and any potential off-target promiscuity.
(§3) Human embryonic kidney (HEK) cells stably expressing AC1, AC8, or AC1 with the MOR were cultured in Dulbecco's Modified Eagle Medium (Life Technologies, Grand Island, N.Y.) supplemented with 5% bovine calf serum (Hyclone, Logan, Utah), 5% fetal clone I (Hyclone), Antibiotic-Antimycotic (Life Technologies), and G418 (Invivogen, San Diego, Calif.) (HEK-AC1), or hygromycin B (Fisher Scientific, Pittsburgh, Pa.) (HEK-AC8), or G418 and puromycin (Sigma-Aldrich) (HEK-AC1/MOR). Chinese hamster ovary (CHO) cells expressing the MOR (CHO-MOR) in the PathHunter® β-Arrestin GPCR assay platform were purchased from DiscoveRx (Freemont, Calif.). Cells were grown in Ham's F12 media supplemented with 1 mM L-glutamine (Thermo Scientific, West Palm Beach, Fla.), 10% fetal bovine serum (Hyclone), 50 U/ml penicillin, 50 μg/ml streptomycin (Life Technologies), G418 and hygromycin B. Cells were grown and frozen as previously described (J. M. Conley, et al., J Vis Exp, e51218 (2014)).
(§4) Cyclic AMP accumulation was measured as previously described (Brust, et al., J. Pharmacol. Exp. Ther. 352, 480-493(2015)). Briefly, cryopreserved cells were thawed, resuspended in optiMEM (Life Technologies), and plated in white, flat bottom, low-volume, tissue culture-treated 384 well plates (PerkinElmer, Shelton, Conn.). Plates with cells were incubated in a 37° C. humidified incubator for 1 h. Inhibitors were added and plates were incubated at room temperature for 30 min followed by the addition of AC stimulants in the presence of 500 μM IBMX. Cells were incubated at room temperature for 1 h and cAMP accumulation was measured using Cisbio's cAMP kit (Cisbio Bioassays, Bedford, Mass.) according to the manufacturer's instructions.

T1 sequence (Q08828 whole entry): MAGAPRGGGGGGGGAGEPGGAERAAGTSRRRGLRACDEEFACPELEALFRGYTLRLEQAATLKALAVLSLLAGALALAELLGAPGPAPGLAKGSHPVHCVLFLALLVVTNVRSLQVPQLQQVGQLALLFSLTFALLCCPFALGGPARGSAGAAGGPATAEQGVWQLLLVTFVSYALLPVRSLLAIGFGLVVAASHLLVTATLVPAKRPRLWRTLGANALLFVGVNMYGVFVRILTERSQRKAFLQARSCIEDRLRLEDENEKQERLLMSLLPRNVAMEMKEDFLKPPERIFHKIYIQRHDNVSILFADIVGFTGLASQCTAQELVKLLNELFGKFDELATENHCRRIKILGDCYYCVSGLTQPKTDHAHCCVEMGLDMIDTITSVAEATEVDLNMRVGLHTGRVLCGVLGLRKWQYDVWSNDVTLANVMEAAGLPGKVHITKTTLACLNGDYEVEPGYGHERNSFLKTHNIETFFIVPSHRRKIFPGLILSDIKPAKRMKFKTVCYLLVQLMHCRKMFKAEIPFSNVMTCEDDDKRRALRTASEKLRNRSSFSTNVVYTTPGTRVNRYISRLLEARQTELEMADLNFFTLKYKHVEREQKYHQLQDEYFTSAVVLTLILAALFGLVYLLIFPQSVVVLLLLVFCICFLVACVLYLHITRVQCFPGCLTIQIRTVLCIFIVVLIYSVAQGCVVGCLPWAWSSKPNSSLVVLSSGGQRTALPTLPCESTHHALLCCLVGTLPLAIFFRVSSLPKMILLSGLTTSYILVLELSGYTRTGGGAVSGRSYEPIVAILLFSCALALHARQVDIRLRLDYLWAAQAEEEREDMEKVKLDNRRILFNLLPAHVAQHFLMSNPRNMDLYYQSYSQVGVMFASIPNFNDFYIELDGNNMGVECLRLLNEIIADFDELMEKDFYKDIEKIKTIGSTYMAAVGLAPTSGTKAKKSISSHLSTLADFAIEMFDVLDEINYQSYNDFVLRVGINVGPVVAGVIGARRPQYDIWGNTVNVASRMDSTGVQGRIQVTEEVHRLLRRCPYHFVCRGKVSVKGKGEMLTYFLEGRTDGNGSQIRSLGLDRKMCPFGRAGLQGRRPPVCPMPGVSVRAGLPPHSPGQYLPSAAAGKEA

SMILES | inhibition at 30 µM
O=C(Nc1nnc(-c2ccc(F)cc2)o1)c1cccc(F)c1 [AC10046, 3-fluoro-N-(5-(4-fluorophenyl)-1,3,4-oxadiazol-2-yl)benzamide] | 81 ± 7%
O=C(Nc1nnc(-c2ccc(F)cc2)o1)c1ccc(F)cc1 [AC10052, 4-fluoro-N-(5-(4-fluorophenyl)-1,3,4-oxadiazol-2-yl)benzamide] | 64 ± 1%
O=C(Nc1nnc(-c2ccc(F)cc2)o1)c1ccc(Cl)cc1 [AC10054, 4-chloro-N-(5-(4-fluorophenyl)-1,3,4-oxadiazol-2-yl)benzamide] | 76 ± 1%
O=C(Nc1nnc(-c2ccc3c(c2)CCCC3)o1)c1ccc(F)cc1 [AC10056, 4-fluoro-N-(5-(5,6,7,8-tetrahydronaphthalen-2-yl)-1,3,4-oxadiazol-2-yl)benzamide] | 98 ± 1%
O=C(Nc1nnc(-c2ccc3c(c2)CCCC3)o1)c1ccc(Cl)cc1 [AC10061, 4-chloro-N-(5-(5,6,7,8-tetrahydronaphthalen-2-yl)-1,3,4-oxadiazol-2-yl)benzamide] | 99 ± 1%
CCc1ccc(C(=O)Nc2nnc(-c3ccc4c(c3)CCCC4)o2)cc1 [AC10062, 4-ethyl-N-(5-(5,6,7,8-tetrahydronaphthalen-2-yl)-1,3,4-oxadiazol-2-yl)benzamide] | 98 ± 1%
O=C(Nc1nnc(-c2ccc(F)cc2)o1)c1cccc(-c2ccccc2)c1 [AC10064, N-(5-(4-fluorophenyl)-1,3,4-oxadiazol-2-yl)-[1,1′-biphenyl]-3-carboxamide] | 98 ± 1%
Cc1cc(C(=O)Nc2nnc(-c3ccc(F)cc3)o2)cc(C(F)(F)F)c1 [AC10065, N-(5-(4-fluorophenyl)-1,3,4-oxadiazol-2-yl)-3-methyl-5-(trifluoromethyl)benzamide] | 99 ± 0.5%

Now from value to molecule:

inhibition at 30 µM | SMILES
79 ± 8% | O=C(Nc1nnc(C2CCCCC2)o1)c1cccc(F)c1 [AC10047, N-(5-cyclohexyl-1,3,4-oxadiazol-2-yl)-3-fluorobenzamide]
74 ± 3% | O=C(Nc1nnc(C2CCCCC2)o1)c1ccc(F)cc1 [AC10053, N-(5-cyclohexyl-1,3,4-oxadiazol-2-yl)-4-fluorobenzamide]
71 ± 5% | O=C(Nc1nnc(C2CCCCC2)o1)c1ccc(Cl)cc1 [AC10055, 4-chloro-N-(5-cyclohexyl-1,3,4-oxadiazol-2-yl)benzamide]
99 ± 0.4% | O=C(Nc1nnc(-c2ccc3c(c2)CCCC3)o1)c1cccc(F)c1 [AC10059, 3-fluoro-N-(5-(5,6,7,8-tetrahydronaphthalen-2-yl)-1,3,4-oxadiazol-2-yl)benzamide]
99 ± 1% | O=C(Nc1nnc(C2CCCCC2)o1)c1cccc(-c2ccccc2)c1 [AC10063, N-(5-cyclohexyl-1,3,4-oxadiazol-2-yl)-[1,1′-biphenyl]-3-carboxamide]

same assay, conditions: HEK-AC1 cells; read-out: HEK-AC1 IC50

SMILES | IC50
O=C(Nc1nnc(-c2ccc(F)cc2)o1)c1cccc(F)c1 [AC10046, 3-fluoro-N-(5-(4-fluorophenyl)-1,3,4-oxadiazol-2-yl)benzamide] | 10.6 ± 3 µM
O=C(Nc1nnc(-c2ccc(F)cc2)o1)c1ccc(F)cc1 [AC10052, 4-fluoro-N-(5-(4-fluorophenyl)-1,3,4-oxadiazol-2-yl)benzamide] | 17 ± 2 µM
O=C(Nc1nnc(-c2ccc(F)cc2)o1)c1ccc(Cl)cc1 [AC10054, 4-chloro-N-(5-(4-fluorophenyl)-1,3,4-oxadiazol-2-yl)benzamide] | 8.9 ± 1 µM
O=C(Nc1nnc(-c2ccc3c(c2)CCCC3)o1)c1ccc(F)cc1 [AC10056, 4-fluoro-N-(5-(5,6,7,8-tetrahydronaphthalen-2-yl)-1,3,4-oxadiazol-2-yl)benzamide] | 5.9 ± 1 µM
CCc1ccc(C(=O)Nc2nnc(-c3ccc4c(c3)CCCC4)o2)cc1 [AC10062, 4-ethyl-N-(5-(5,6,7,8-tetrahydronaphthalen-2-yl)-1,3,4-oxadiazol-2-yl)benzamide] | 1.2 ± 0.2 µM
O=C(Nc1nnc(-c2ccc(F)cc2)o1)c1cccc(-c2ccccc2)c1 [AC10064, N-(5-(4-fluorophenyl)-1,3,4-oxadiazol-2-yl)-[1,1′-biphenyl]-3-carboxamide] | 2.3 ± 0.4 µM
Cc1cc(C(=O)Nc2nnc(-c3ccc(F)cc3)o2)cc(C(F)(F)F)c1 [AC10065, N-(5-(4-fluorophenyl)-1,3,4-oxadiazol-2-yl)-3-methyl-5-(trifluoromethyl)benzamide] | 1.4 ± 0.2 µM

Results, then the molecule that gave them:

IC50 | SMILES
10.5 ± 2 µM | O=C(Nc1nnc(C2CCCCC2)o1)c1cccc(F)c1 [AC10047, N-(5-cyclohexyl-1,3,4-oxadiazol-2-yl)-3-fluorobenzamide]
12.8 ± 1 µM | O=C(Nc1nnc(C2CCCCC2)o1)c1ccc(F)cc1 [AC10053, N-(5-cyclohexyl-1,3,4-oxadiazol-2-yl)-4-fluorobenzamide]
13.5 ± 2 µM | O=C(Nc1nnc(C2CCCCC2)o1)c1ccc(Cl)cc1 [AC10055, 4-chloro-N-(5-cyclohexyl-1,3,4-oxadiazol-2-yl)benzamide]
1 ± 0.3 µM | O=C(Nc1nnc(-c2ccc3c(c2)CCCC3)o1)c1cccc(F)c1 [AC10059, 3-fluoro-N-(5-(5,6,7,8-tetrahydronaphthalen-2-yl)-1,3,4-oxadiazol-2-yl)benzamide]
1.4 ± 0.2 µM | O=C(Nc1nnc(C2CCCCC2)o1)c1cccc(-c2ccccc2)c1 [AC10063, N-(5-cyclohexyl-1,3,4-oxadiazol-2-yl)-[1,1′-biphenyl]-3-carboxamide]

biological target: T2, hAC8 (Homo sapiens, UniProt P40145); assay: Cyclic AMP accumulation in HEK cells stably expressing AC8, stimulated with A23187 (HTRF); format: cell-based; details: HEK293; HEK-AC8 cells, 30 μM
T2 construct: expressed in transfected cells
T2 sequence (P40145 whole entry): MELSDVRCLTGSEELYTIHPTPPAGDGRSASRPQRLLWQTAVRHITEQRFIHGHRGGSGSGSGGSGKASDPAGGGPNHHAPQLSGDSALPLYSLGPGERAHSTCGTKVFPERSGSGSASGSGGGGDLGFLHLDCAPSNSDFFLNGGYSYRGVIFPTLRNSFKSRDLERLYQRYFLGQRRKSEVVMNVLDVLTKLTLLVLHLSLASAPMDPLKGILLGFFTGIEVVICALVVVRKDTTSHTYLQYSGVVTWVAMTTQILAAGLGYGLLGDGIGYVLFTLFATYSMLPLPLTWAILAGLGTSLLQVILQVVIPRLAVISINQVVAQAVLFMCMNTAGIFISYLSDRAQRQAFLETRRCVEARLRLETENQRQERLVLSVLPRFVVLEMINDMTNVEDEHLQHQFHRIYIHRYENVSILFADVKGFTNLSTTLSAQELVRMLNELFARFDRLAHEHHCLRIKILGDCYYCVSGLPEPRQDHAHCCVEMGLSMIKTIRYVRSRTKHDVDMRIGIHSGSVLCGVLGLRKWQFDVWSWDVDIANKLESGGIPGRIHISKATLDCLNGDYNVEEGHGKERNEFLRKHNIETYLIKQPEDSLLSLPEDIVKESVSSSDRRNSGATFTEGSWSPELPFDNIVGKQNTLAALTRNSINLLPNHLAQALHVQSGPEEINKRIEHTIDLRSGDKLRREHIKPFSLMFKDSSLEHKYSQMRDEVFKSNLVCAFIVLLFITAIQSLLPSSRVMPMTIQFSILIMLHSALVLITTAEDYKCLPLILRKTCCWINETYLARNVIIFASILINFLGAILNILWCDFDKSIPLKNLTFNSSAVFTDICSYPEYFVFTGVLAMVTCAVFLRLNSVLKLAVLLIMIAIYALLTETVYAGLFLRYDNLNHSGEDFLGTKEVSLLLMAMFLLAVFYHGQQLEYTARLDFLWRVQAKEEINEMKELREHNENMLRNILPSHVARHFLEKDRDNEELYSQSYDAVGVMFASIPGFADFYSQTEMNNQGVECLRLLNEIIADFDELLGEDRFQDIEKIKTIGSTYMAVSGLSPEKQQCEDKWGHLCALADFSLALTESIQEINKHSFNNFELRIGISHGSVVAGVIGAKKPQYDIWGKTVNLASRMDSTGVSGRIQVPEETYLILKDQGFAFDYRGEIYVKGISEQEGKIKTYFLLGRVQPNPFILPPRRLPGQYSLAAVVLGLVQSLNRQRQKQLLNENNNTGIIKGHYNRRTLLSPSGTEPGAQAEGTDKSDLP
Experimental: as §1, §2, §3, §4

SMILES | inhibition at 30 µM
O=C(Nc1nnc(-c2ccc(F)cc2)o1)c1cccc(F)c1 [AC10046, 3-fluoro-N-(5-(4-fluorophenyl)-1,3,4-oxadiazol-2-yl)benzamide] | 35 ± 1%
O=C(Nc1nnc(-c2ccc(F)cc2)o1)c1ccc(F)cc1 [AC10052, 4-fluoro-N-(5-(4-fluorophenyl)-1,3,4-oxadiazol-2-yl)benzamide] | 14 ± 3%
O=C(Nc1nnc(-c2ccc(F)cc2)o1)c1ccc(Cl)cc1 [AC10054, 4-chloro-N-(5-(4-fluorophenyl)-1,3,4-oxadiazol-2-yl)benzamide] | 11 ± 9%
O=C(Nc1nnc(-c2ccc3c(c2)CCCC3)o1)c1ccc(F)cc1 [AC10056, 4-fluoro-N-(5-(5,6,7,8-tetrahydronaphthalen-2-yl)-1,3,4-oxadiazol-2-yl)benzamide] | 74 ± 8%
O=C(Nc1nnc(-c2ccc3c(c2)CCCC3)o1)c1ccc(Cl)cc1 [AC10061, 4-chloro-N-(5-(5,6,7,8-tetrahydronaphthalen-2-yl)-1,3,4-oxadiazol-2-yl)benzamide] | 90 ± 0.4%
CCc1ccc(C(=O)Nc2nnc(-c3ccc4c(c3)CCCC4)o2)cc1 [AC10062, 4-ethyl-N-(5-(5,6,7,8-tetrahydronaphthalen-2-yl)-1,3,4-oxadiazol-2-yl)benzamide] | 88 ± 2%
O=C(Nc1nnc(-c2ccc(F)cc2)o1)c1cccc(-c2ccccc2)c1 [AC10064, N-(5-(4-fluorophenyl)-1,3,4-oxadiazol-2-yl)-[1,1′-biphenyl]-3-carboxamide] | 84 ± 3%
Cc1cc(C(=O)Nc2nnc(-c3ccc(F)cc3)o2)cc(C(F)(F)F)c1 [AC10065, N-(5-(4-fluorophenyl)-1,3,4-oxadiazol-2-yl)-3-methyl-5-(trifluoromethyl)benzamide] | 89 ± 2%

More lines, now with the values ahead:

inhibition at 30 µM | SMILES
11 ± 3% | O=C(Nc1nnc(C2CCCCC2)o1)c1cccc(F)c1 [AC10047, N-(5-cyclohexyl-1,3,4-oxadiazol-2-yl)-3-fluorobenzamide]
7 ± 4% | O=C(Nc1nnc(C2CCCCC2)o1)c1ccc(F)cc1 [AC10053, N-(5-cyclohexyl-1,3,4-oxadiazol-2-yl)-4-fluorobenzamide]
10 ± 12% | O=C(Nc1nnc(C2CCCCC2)o1)c1ccc(Cl)cc1 [AC10055, 4-chloro-N-(5-cyclohexyl-1,3,4-oxadiazol-2-yl)benzamide]
90 ± 1% | O=C(Nc1nnc(-c2ccc3c(c2)CCCC3)o1)c1cccc(F)c1 [AC10059, 3-fluoro-N-(5-(5,6,7,8-tetrahydronaphthalen-2-yl)-1,3,4-oxadiazol-2-yl)benzamide]
92 ± 1% | O=C(Nc1nnc(C2CCCCC2)o1)c1cccc(-c2ccccc2)c1 [AC10063, N-(5-cyclohexyl-1,3,4-oxadiazol-2-yl)-[1,1′-biphenyl]-3-carboxamide]

same assay, conditions: HEK-AC8 cells; read-out: HEK-AC8 IC50

SMILES | IC50
O=C(Nc1nnc(-c2ccc(F)cc2)o1)c1cccc(F)c1 [AC10046, 3-fluoro-N-(5-(4-fluorophenyl)-1,3,4-oxadiazol-2-yl)benzamide] | 69 ± 11 µM
O=C(Nc1nnc(-c2ccc3c(c2)CCCC3)o1)c1ccc(F)cc1 [AC10056, 4-fluoro-N-(5-(5,6,7,8-tetrahydronaphthalen-2-yl)-1,3,4-oxadiazol-2-yl)benzamide] | 22 ± 4 µM
CCc1ccc(C(=O)Nc2nnc(-c3ccc4c(c3)CCCC4)o2)cc1 [AC10062, 4-ethyl-N-(5-(5,6,7,8-tetrahydronaphthalen-2-yl)-1,3,4-oxadiazol-2-yl)benzamide] | 2 ± 0.4 µM
O=C(Nc1nnc(-c2ccc(F)cc2)o1)c1cccc(-c2ccccc2)c1 [AC10064, N-(5-(4-fluorophenyl)-1,3,4-oxadiazol-2-yl)-[1,1′-biphenyl]-3-carboxamide] | 7 ± 1 µM
Cc1cc(C(=O)Nc2nnc(-c3ccc(F)cc3)o2)cc(C(F)(F)F)c1 [AC10065, N-(5-(4-fluorophenyl)-1,3,4-oxadiazol-2-yl)-3-methyl-5-(trifluoromethyl)benzamide] | 4.1 ± 0.4 µM

Continued, values first:

IC50 | SMILES
4.2 ± 0.2 µM | O=C(Nc1nnc(-c2ccc3c(c2)CCCC3)o1)c1cccc(F)c1 [AC10059, 3-fluoro-N-(5-(5,6,7,8-tetrahydronaphthalen-2-yl)-1,3,4-oxadiazol-2-yl)benzamide]
1.4 ± 0.4 µM | O=C(Nc1nnc(C2CCCCC2)o1)c1cccc(-c2ccccc2)c1 [AC10063, N-(5-cyclohexyl-1,3,4-oxadiazol-2-yl)-[1,1′-biphenyl]-3-carboxamide]
